Reference: ChEMBL document CHEMBL3865816, “Design, synthesis and biological evaluation of novel azaspiro analogs of linezolid as antibacterial and antitubercular agents” (Eur J Med Chem, 2016)
In brackets after ≈: the same amount, converted by molar mass.

What was measured:
Type in all cases: functional
Staphylococcus aureus [1] = assay: Antibacterial activity against Staphylococcus aureus NCIM 2079 at 10 ug/ml measured after 12 hrs by spectrophotometric method; conditions: NCIM 2079, 12 h
Escherichia coli [2] = assay: Antibacterial activity against Escherichia coli NCIM 2688 measured after 8 hrs by spectrophotometric method; conditions: NCIM 2688, 8 h
Pseudomonas aeruginosa [3] = assay: Antibacterial activity against Pseudomonas aeruginosa NCIM 2036 measured after 8 hrs by spectrophotometric method; conditions: NCIM 2036, 8 h
Escherichia coli [4] = assay: Antibacterial activity against Escherichia coli NCIM 2688 at 3 ug/ml measured after 8 hrs by spectrophotometric method; conditions: NCIM 2688, 8 h
Bacillus subtilis [5] = assay: Antibacterial activity against Bacillus subtilis NCIM 2010 at 3 ug/ml measured after 12 hrs by spectrophotometric method; conditions: NCIM 2010, 12 h
[6] = tested on: Mycobacterium tuberculosis; assay: Antitubercular activity against dormant stage Mycobacterium tuberculosis H37Ra measured after 12 days by XTT assay; conditions: 288 h
[7] = tested on: Mycobacterium tuberculosis; assay: Antitubercular activity against dormant stage Mycobacterium tuberculosis H37Ra at 30 ug/ml measured after 12 days by XTT assay; conditions: 288 h
Bacillus subtilis [8] = assay: Antibacterial activity against Bacillus subtilis NCIM 2010 measured after 12 hrs by spectrophotometric method; conditions: NCIM 2010, 12 h
Pseudomonas aeruginosa [9] = assay: Antibacterial activity against Pseudomonas aeruginosa NCIM 2036 at 10 ug/ml measured after 8 hrs by spectrophotometric method; conditions: NCIM 2036, 8 h
Pseudomonas aeruginosa [10] = assay: Antibacterial activity against Pseudomonas aeruginosa NCIM 2036 at 30 ug/ml measured after 8 hrs by spectrophotometric method; conditions: NCIM 2036, 8 h
Pseudomonas aeruginosa [11] = assay: Antibacterial activity against Pseudomonas aeruginosa NCIM 2036 at 3 ug/ml measured after 8 hrs by spectrophotometric method; conditions: NCIM 2036, 8 h
Bacillus subtilis [12] = assay: Antibacterial activity against Bacillus subtilis NCIM 2010 at 30 ug/ml measured after 12 hrs by spectrophotometric method; conditions: NCIM 2010, 12 h
[13] = tested on: Mycobacterium tuberculosis; assay: Antitubercular activity against dormant stage Mycobacterium tuberculosis H37Ra at 10 ug/ml measured after 12 days by XTT assay; conditions: 288 h
[14] = tested on: Mycobacterium tuberculosis; assay: Antitubercular activity against dormant stage Mycobacterium tuberculosis H37Ra at 3 ug/ml measured after 12 days by XTT assay; conditions: 288 h
Escherichia coli [15] = assay: Antibacterial activity against Escherichia coli NCIM 2688 at 10 ug/ml measured after 8 hrs by spectrophotometric method; conditions: NCIM 2688, 8 h
Bacillus subtilis [16] = assay: Antibacterial activity against Bacillus subtilis NCIM 2010 at 10 ug/ml measured after 12 hrs by spectrophotometric method; conditions: NCIM 2010, 12 h
Staphylococcus aureus [17] = assay: Antibacterial activity against Staphylococcus aureus NCIM 2079 at 30 ug/ml measured after 12 hrs by spectrophotometric method; conditions: NCIM 2079, 12 h
Escherichia coli [18] = assay: Antibacterial activity against Escherichia coli NCIM 2688 at 30 ug/ml measured after 8 hrs by spectrophotometric method; conditions: NCIM 2688, 8 h
[19] = tested on: Mycobacterium tuberculosis; assay: Antitubercular activity against active stage Mycobacterium tuberculosis H37Ra measured after 8 days by XTT assay; conditions: 192 h
Staphylococcus aureus [20] = assay: Antibacterial activity against Staphylococcus aureus NCIM 2079 measured after 12 hrs by spectrophotometric method; conditions: NCIM 2079, 12 h
Staphylococcus aureus [21] = assay: Antibacterial activity against Staphylococcus aureus NCIM 2079 at 3 ug/ml measured after 12 hrs by spectrophotometric method; conditions: NCIM 2079, 12 h

Row | Structure (SMILES) | inhibition at 10 µg/mL (Staphylococcus aureus [1]) | IC50 (Escherichia coli [2]) | MIC (Escherichia coli [2]) | IC50 (Pseudomonas aeruginosa [3]) | MIC (Pseudomonas aeruginosa [3]) | inhibition at 3 µg/mL (Escherichia coli [4]) | inhibition at 3 µg/mL (Bacillus subtilis [5]) | IC50 [6] | MIC [6] | inhibition at 30 µg/mL [7] | IC50 (Bacillus subtilis [8]) | MIC (Bacillus subtilis [8]) | inhibition at 10 µg/mL (Pseudomonas aeruginosa [9]) | inhibition at 30 µg/mL (Pseudomonas aeruginosa [10]) | inhibition at 3 µg/mL (Pseudomonas aeruginosa [11]) | inhibition at 30 µg/mL (Bacillus subtilis [12]) | inhibition at 10 µg/mL [13] | inhibition at 3 µg/mL [14] | inhibition at 10 µg/mL (Escherichia coli [15]) | inhibition at 10 µg/mL (Bacillus subtilis [16]) | also measured
1 | CC(=O)OCC(=O)NC[C@H]1CN(c2ccc(N3CC4(COC4)C3)c(F)c2)C(=O)O1 | 93.9% | > 100 µg/mL | > 100 µg/mL | > 100 µg/mL | > 100 µg/mL | 49.4% | 43.6% | 6.69 µg/mL (≈ 16.4 µM) | 10.6 µg/mL (≈ 26.1 µM) | 88.9% | > 100 µg/mL | > 100 µg/mL | 42.8% | 58.3% | 22.8% | 99.3% | 4.03% | -16.6% | 63.9% | 73.6% | inhibition at 30 µg/mL (Staphylococcus aureus [17]): 98.2%; inhibition at 30 µg/mL (Escherichia coli [18]): 89.1%; IC50 [19]: 3.24 µg/mL (≈ 7.95 µM); MIC [19]: 7.8 µg/mL (≈ 19.1 µM); IC50 (Staphylococcus aureus [20]): 0.75 µg/mL (≈ 1.84 µM); MIC (Staphylococcus aureus [20]): 8.4 µg/mL (≈ 20.6 µM); inhibition at 3 µg/mL (Staphylococcus aureus [21]): 82.5%
2 | NC[C@H]1CN(c2ccc(N3CC4(COC4)C3)c(F)c2)C(=O)O1 | 94.3% | 0.57 µg/mL (≈ 1.85 µM) | 4.05 µg/mL (≈ 13.2 µM) | > 100 µg/mL | > 100 µg/mL | 88% | 36.4% | 3.46 µg/mL (≈ 11.3 µM) | 11.3 µg/mL (≈ 36.9 µM) | 90.9% | > 100 µg/mL | > 100 µg/mL | 53.7% | 56.9% | 49.2% | 48.8% | 75.2% | 15.2% | 96.8% | 43.3% | inhibition at 30 µg/mL (Staphylococcus aureus [17]): 98.9%; inhibition at 30 µg/mL (Escherichia coli [18]): 99.2%; IC50 [19]: 2.8 µg/mL (≈ 9.11 µM); MIC [19]: 18.3 µg/mL (≈ 59.4 µM); IC50 (Staphylococcus aureus [20]): 0.84 to 0.843 µg/mL (≈ 2.73 to 2.74 µM); MIC (Staphylococcus aureus [20]): 3.38 µg/mL (≈ 11 µM); inhibition at 3 µg/mL (Staphylococcus aureus [21]): 86.5%
3 | O=C1OC2(CCNC2)CN1c1ccc(N2CCOCC2)c(F)c1 (centres undefined) | 46.8% | 4.44 µg/mL (≈ 13.8 µM) | 0.554 µg/mL (≈ 1.72 µM) | > 100 µg/mL | > 100 µg/mL | 86.4% | 8.05% | > 100 µg/mL | > 100 µg/mL | 49.3% | > 100 µg/mL | > 100 µg/mL | 32.2% | 36.2% | 22.6% | 32.2% | 17% | 13.6% | 96.2% | 21.5% | inhibition at 30 µg/mL (Staphylococcus aureus [17]): 50.2%; inhibition at 30 µg/mL (Escherichia coli [18]): 99.8%; IC50 (Staphylococcus aureus [20]): > 100 µg/mL; MIC (Staphylococcus aureus [20]): > 100 µg/mL; inhibition at 3 µg/mL (Staphylococcus aureus [21]): 36.2%
4 | COc1ccc(NC(=S)NC[C@H]2CN(c3ccc(N4CC5(COC5)C4)c(F)c3)C(=O)O2)cc1 | 88.7% | 1.1 µg/mL (≈ 2.33 µM) | 10.7 µg/mL (≈ 22.6 µM) | > 100 µg/mL | > 100 µg/mL | 82.2% | 77.9% | > 100 µg/mL | > 100 µg/mL | 23.3% | 1.1 µg/mL (≈ 2.33 µM) | 8.78 µg/mL (≈ 18.6 µM) | 30.1% | 58.5% | 17.7% | 100% | -3.34% | 14.3% | 89.4% | 95.3% | inhibition at 30 µg/mL (Staphylococcus aureus [17]): 98.3%; inhibition at 30 µg/mL (Escherichia coli [18]): 98%; IC50 (Staphylococcus aureus [20]): 0.74 to 100 µg/mL (≈ 1.57 to 212 µM); MIC (Staphylococcus aureus [20]): 16.1 to 100 µg/mL (≈ 34.1 to 212 µM); inhibition at 3 µg/mL (Staphylococcus aureus [21]): 81.4%
5 | O=C1O[C@@H](CNS(=O)(=O)c2ccc(Cl)s2)CN1c1ccc(N2CC3(COC3)C2)c(F)c1 | 96.5% | 0.89 µg/mL (≈ 1.82 µM) | 15.4 µg/mL (≈ 31.6 µM) | 1.13 µg/mL (≈ 2.32 µM) | 3.52 µg/mL (≈ 7.21 µM) | 80.3% | 90% | > 100 µg/mL | > 100 µg/mL | 74.6% | 0.64 µg/mL (≈ 1.31 µM) | 2.2 µg/mL (≈ 4.51 µM) | 97.1% | 99% | 86.6% | 99.2% | -6.64% | -14.5% | 87.4% | 97.2% | inhibition at 30 µg/mL (Staphylococcus aureus [17]): 96.9%; inhibition at 30 µg/mL (Escherichia coli [18]): 97.8%; IC50 (Staphylococcus aureus [20]): 0.46 µg/mL (≈ 0.943 µM); MIC (Staphylococcus aureus [20]): 1.31 µg/mL (≈ 2.68 µM); inhibition at 3 µg/mL (Staphylococcus aureus [21]): 94.3%
6 | O=C1O[C@@H](CNS(=O)(=O)c2cc(Cl)cc(Cl)c2)CN1c1ccc(N2CC3(COC3)C2)c(F)c1 | 50.6% | > 100 µg/mL | > 100 µg/mL | > 100 µg/mL | > 100 µg/mL | 36.8% | 51% | > 100 µg/mL | > 100 µg/mL | 23.2% | > 100 µg/mL | > 100 µg/mL | 67.2% | 86.6% | 42.2% | 66.6% | -5.84% | 8.02% | 23.5% | 56.1% | inhibition at 30 µg/mL (Staphylococcus aureus [17]): 74.2%; inhibition at 30 µg/mL (Escherichia coli [18]): 25.4%; IC50 (Staphylococcus aureus [20]): > 100 µg/mL; MIC (Staphylococcus aureus [20]): > 100 µg/mL; inhibition at 3 µg/mL (Staphylococcus aureus [21]): 55.1%
